Where two headings read alike, the source gives them in different places.
How the values were obtained:
[1] = system: DNFB-induced delayed type hypersensitivity reaction; assay: DNFB-induced delayed type hypersensitivity reaction in mice; assay type: in vivo, BALB/c mice; settings: 2 mg/kg/d, oral administration; model control 0.175 mm
Experimental: The delayed type hypersensitivity (DTH) reaction in mice was induced by DNFB to evaluate the inhibition effect of the compound on DTH in vivo. […] Preparation method: the compound was dissolved in anhydrous alcohol to prepare a stock solution (50 mg/ml), which was diluted to the desired concentration when use by using a solution of 5% PEG400, 5% Tween-80 in sterile water as a solvent. […] DNFB combined with dermal protein to form a complete antigen after sensitizing on feet of mice. One week later, mice were attacked by DNFB on ears to induce a local delayed allergic reaction, i.e., the delayed type hypersensitivity reaction to cause ear swelling, while the delayed type hypersensitivity reaction would not be observed on the ear which had not been attacked. Therefore, the ear swelling can reflect the level of the delayed type hypersensitivity reaction in mice induced by DNFB. (1) 20 μl of 0.5% DNFB solution in a mixture of acetone and olive oil (4:1) as a solvent was applied on both hind legs of mice for sensitization. […] (4) Thickness of the left and right ears of the mice was measured by a micrometer screw gauge, and the swelling was calculated by subtracting the thickness of the left ear from thickness of the right ear.

[2] = system: human rhabdomyosarcoma RH-30 xenograft; assay: RH-30 xenograft on nude mice; settings: Table 4, 5 mg/kg po, 1-5/2 w;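 note: male BALB/cA nude mice with subcutaneous RH-30 tumors, oral dosing versus solvent-fed controls, caliper tumor volume, RTV relative to grouping day, T/C as treated RTV over control RTV ×100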
Excerpt: Animals: BALB/cA nude mice, male, 40-45 days old, body weight: 21±2 g, provided by Shanghai Institute of Materia Medica, Chinese Academy of Sciences. License No.: SCXK (Shanghai) 2004-0002. Animal number in each group: 6 in negative control group, and 6 in administration group.
The amount of inoculated cells was 5×10^6. After the xenograft was formed by inoculation, it was used after passed for 3 generations in nude mice.

[3] = system: human osteosarcoma U2SO xenograft; assay: U2SO xenograft on nude mice; settings: Table 5, oral 2.5 mg/kg, 1-5/3 w
in vivo = assay type: in vivo; settings: nude, mouse; for concentration at 0.5 h / concentration at 12 h / concentration at 48 h / concentration at 2 h / concentration at 5 h: CCI-779 (prototype) concentration; for Kp: read-out: AUCtissue/AUCplasma
FKBP-12 protein = molecular target: T1, FKBP-12 protein (Homo sapiens, UniProt P62942); assay: SPR (surface plasma resonance) binding with FKBP-12
T1 construct: purchased sigma Co
T1 sequence (P62942 whole entry, species assumed): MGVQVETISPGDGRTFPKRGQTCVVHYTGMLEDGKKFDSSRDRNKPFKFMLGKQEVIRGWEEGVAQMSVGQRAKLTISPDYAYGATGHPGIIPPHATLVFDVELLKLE
Experimental: (1) FKBP-12 protein was purchased from sigma Co.
(2) HBS-EP buffer solution (10 mM Hepes, 150 mM NaCl, 3.4 mM EDTA, 0.005% (v/v) surfactant P20, pH 7.4)
(3) Activating reagents EDC and NHS, and blocking reagents Ethanolamine, etc., were purchased from BIACORE AB Co. (Uppsala, Sweden).
(4) BIAcore 3000 and CM5 chip were purchased from BIACORE AB Co. (Uppsala, Sweden).
(2) […] was coupled to the FC2 channel on CM5 chip by using the Wizard for amino-coupling in Biacore 3000 controlling soft. 3.3 g/L of FKBP-12 protein was diluted with 10 mM NaAC (pH 4.6) to 66 μg/ml. The surface of the chip was washed by injecting a mixture of 0.1M1-(3-dimethylaminopropyl)-3-ethylcarbodiimide hydrochloride (EDCI) and 0.1M N-hydroxysuccinimide (NHS) (1:1) at a flow rate of 20 μL/min for 7 min. After that, the protein solution was injected, and then a 1M cholamine (pH 8.5) solution was fed for 7 min to block the activated surface of the chip. Preliminary screening and pharmacokinetic tests on the compounds
The binding abilities of small molecular compounds with FKBP-12 protein were evaluated by SPR (surface plasma resonance). The stock solution of the compound was 10 mM, and was diluted by HBS-EP buffer solution at given ratios. Pharmacokinetic tests were carried out by the Wizard for kinetic analysis in Biacore 3000 controlling soft. The resulted data were fitted by 1:1 Langmuir binding model or stability model in Biacore 3000 analytical soft to obtain the exact kinetic and thermodynamic constants.

[4] = Immunosuppressive activity assay: cytotoxicity; assay type: cell-based
T Cells = assay: Immunosuppressive activity assay: T cells inhibitory activity; assay type: cell-based; settings: T-cell; Table 10
[5] = in vivo, Blood Plasma, Mean Value

## C[C@@H]1C[C@H]2[C@@H]3CCC4=CC(=O)C=C[C@]4(C)[C@@]3(F)[C@@H](O)C[C@]2(C)[C@@]1(O)C(=O)CO [Dex]
[1]
  average ear swelling degree: 0.13 mm

## CO[C@H]1CC2CC[C@@H](C)[C@@](O)(O2)C(=O)C(=O)N2CCCCC2C(=O)O[C@H]([C@H](C)C[C@@H]2CC[C@@H](O)[C@H](OC)C2)CC(=O)[C@H](C)/C=C(\C)[C@@H](OC(=O)OCC(O)CO)[C@@H](OC)C(=O)[C@H](C)C[C@H](C)/C=C/C=C/C=C/1C (some centres unmarked) [Y31-1]
[2]
  Body Weight (g) end: 21.2 g
  Body Weight (g) start: 20.2 g
  RTV: 2.4 ± 1.0
  T/C (%): 55.7%
  TV (mm^3) d14: 381 ± 158 mm^3
[2]; baseline
  TV (mm^3) d0: 164 ± 44 mm^3

## CO[C@H]1C[C@@H]2CC[C@@H](C)[C@@](O)(O2)C(=O)C(=O)N2CCCC[C@H]2C(=O)O[C@H]([C@H](C)C[C@@H]2CC[C@@H](OC(=O)C(C)(CO)CO)[C@H](OC)C2)CC(=O)[C@H](C)/C=C(\C)[C@@H](O)[C@@H](OC)C(=O)[C@H](C)C[C@H](C)/C=C/C=C/C=C/1C [CCI-779]
[3]
  Body Weight (g) end: 17.7 g
  Body Weight (g) start: 19.9 g
  RTV: 17 ± 7.0
  T/C (%): 69.0%
  TV (mm^3) d21: 1446 ± 630 mm^3
[3]; baseline
  TV (mm^3) d0: 85 ± 17 mm^3
In vivo; in vivo
  AUC0-t (ng · h/g or ng · h/ml): 1098 ng·h/mL
  AUC(0-t): 106 ng·h/mL
In vivo; in vivo, 0.5 h
  Sirolimus concentration, Blood Plasma, Mean Value: 123 ng/mL
  Sirolimus concentration, Liver, Mean Value: 142 ng/g
  Sirolimus concentration, Tumor, Mean Value: 9.03 ng/g
In vivo; in vivo, 2 h
  Sirolimus concentration, Blood Plasma, Mean Value: 143 ng/mL
  Sirolimus concentration, Liver, Mean Value: 98.4 ng/g
  Sirolimus concentration, Tumor, Mean Value: 36.3 ng/g
In vivo; in vivo, 5 h
  Sirolimus concentration, Blood Plasma, Mean Value: 58.2 ng/mL
  Sirolimus concentration, Liver, Mean Value: 83.9 ng/g
  Sirolimus concentration, Tumor, Mean Value: 30.3 ng/g
In vivo; in vivo, 12 h
  Sirolimus concentration, Blood Plasma, Mean Value: 14.2 ng/mL
  Sirolimus concentration, Liver, Mean Value: 33.2 ng/g
  Sirolimus concentration, Tumor, Mean Value: 19.1 ng/g
In vivo; in vivo, 48 h
  Sirolimus concentration, Blood Plasma, Mean Value: 3.08 ng/mL
  Sirolimus concentration, Liver, Mean Value: 9.12 ng/g
  Sirolimus concentration, Tumor, Mean Value: 16.7 ng/g
In vivo; in vivo, Blood Plasma
  concentration at 0.5 h: 20.5 ng/mL
  concentration at 12 h: 1.3 ng/mL
  concentration at 48 h: 0.16 ng/mL
In vivo; [5]
  concentration at 0.5 h: 30.9 ng/mL
  concentration at 2 h: 11.7 ng/mL
  concentration at 5 h: 3.67 ng/mL
  concentration at 12 h: 1.27 ng/mL
  concentration at 48 h: 0.164 ng/mL
In vivo; in vivo, Liver
  concentration at 0.5 h: 392 ng/g
  concentration at 2 h: 103 ng/g
  concentration at 5 h: 45.5 ng/g
In vivo; in vivo, Liver, Mean Value
  concentration at 0.5 h: 474 ng/g
  concentration at 2 h: 151 ng/g
  concentration at 5 h: 57.6 ng/g
  concentration at 12 h: 28.6 ng/g
  concentration at 48 h: 3.11 ng/g
In vivo; in vivo, Tumor
  concentration at 2 h: 31.1 ng/g
  concentration at 12 h: 9.37 ng/g
  concentration at 48 h: 6.48 ng/g
In vivo; in vivo, Tumor, Mean Value
  concentration at 2 h: 28.8 ng/g
  concentration at 5 h: 16.6 ng/g
  concentration at 12 h: 10.5 ng/g
  concentration at 48 h: 6.52 ng/g
In vivo; in vivo, Cmax (ng/g or ng/ml)
  Cmax: 30.9 ng/mL
In vivo; liver
  Kp: 16.8
In vivo; tumor
  Kp: 4.77
FKBP-12 protein
  binding with FKBP12: concentration-dependently bind
FKBP-12 protein; FKBP12
  Kd: 0.00102 µM

## CO[C@H]1CC2CC[C@@H](C)[C@@](O)(O2)C(=O)C(=O)N2CCCCC2C(=O)O[C@H]([C@H](C)C[C@@H]2CC[C@@H](OC(=O)OCC3COC(C)(C)O3)[C@H](OC)C2)CC(=O)[C@H](C)/C=C(\C)[C@@H](OC(=O)OCC2COC(C)(C)O2)[C@@H](OC)C(=O)[C@H](C)C[C@H](C)/C=C/C=C/C=C/1C (some centres unmarked) [Y230]
[4]; Table 10
  Safety Index CC50/IC50: >18.9
[4]; Table 10, value beyond the >100 μM bound, read-out: Cytotoxicity CC50, value in brackets
  CC50: 39800 µM
[4]; Table 10, read-out: Cytotoxicity CC50
  CC50: > 100 µM
T Cells
  IC50: 5.3 µM

Source: US8455510B2
